Experimental findings from patent publication US20190292189A1, “LIM KINASE INHIBITORS” (VIRONGY, LLC, priority 2016, published 2019) are described below.

One series addresses ROCK-II (Homo sapiens, UniProt O75116). The series is described as follows: ROCK-II biochemical counter-screen.
The next series concerns the target Limk1 (Homo sapiens, UniProt P53667). Description: Limk1 biochemical assay (Reaction Biology, 10-dose IC50). On the set-up: His; purchased Reaction Biology Corporation; host or cells: insect cells.
A further series concerns the target T1, P450 1A2 (Homo sapiens, UniProt P05177).
T1 sequence (P05177 1-516): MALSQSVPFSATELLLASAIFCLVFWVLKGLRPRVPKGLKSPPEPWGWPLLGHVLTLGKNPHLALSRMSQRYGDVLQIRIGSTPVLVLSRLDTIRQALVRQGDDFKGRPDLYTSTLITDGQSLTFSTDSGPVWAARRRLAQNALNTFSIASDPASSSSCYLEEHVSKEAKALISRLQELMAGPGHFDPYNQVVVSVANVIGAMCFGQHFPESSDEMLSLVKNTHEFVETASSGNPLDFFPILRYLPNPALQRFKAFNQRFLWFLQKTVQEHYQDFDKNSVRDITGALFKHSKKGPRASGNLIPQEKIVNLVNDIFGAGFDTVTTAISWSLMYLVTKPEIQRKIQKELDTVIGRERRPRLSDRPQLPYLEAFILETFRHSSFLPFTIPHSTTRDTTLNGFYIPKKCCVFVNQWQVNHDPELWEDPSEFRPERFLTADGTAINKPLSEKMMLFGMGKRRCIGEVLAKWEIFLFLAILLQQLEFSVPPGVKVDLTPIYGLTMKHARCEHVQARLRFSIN

The target of the next series is P450 2C9 (Homo sapiens, UniProt P11712). Description: P450 inhibition at 10 μM. It counts as in vitro ADME.
Sequence of P450 2C9 (P11712 whole entry): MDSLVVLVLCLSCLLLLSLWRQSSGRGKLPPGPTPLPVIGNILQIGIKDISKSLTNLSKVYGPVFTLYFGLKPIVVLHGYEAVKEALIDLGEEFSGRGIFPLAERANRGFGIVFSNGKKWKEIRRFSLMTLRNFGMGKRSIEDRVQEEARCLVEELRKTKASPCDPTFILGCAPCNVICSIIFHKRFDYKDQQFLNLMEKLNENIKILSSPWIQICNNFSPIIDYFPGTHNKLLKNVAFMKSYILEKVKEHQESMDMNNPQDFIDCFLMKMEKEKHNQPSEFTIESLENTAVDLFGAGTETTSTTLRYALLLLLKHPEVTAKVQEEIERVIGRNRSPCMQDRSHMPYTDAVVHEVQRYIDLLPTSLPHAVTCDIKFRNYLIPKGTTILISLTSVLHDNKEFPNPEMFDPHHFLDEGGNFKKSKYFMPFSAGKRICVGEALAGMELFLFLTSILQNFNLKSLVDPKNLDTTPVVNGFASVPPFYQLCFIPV
Series [1] can be described thus: Microsomal stability, human liver microsomes. The format is in vitro ADME.
The target of the next series is ROCK-I (Homo sapiens, UniProt Q13464). Description: ROCK-I biochemical counter-screen. The note with it: Table 6; read-out: Biochemical Inhibition IC50 (nM) ROCK-I.
Sequence of ROCK-I (Q13464 whole entry, species assumed): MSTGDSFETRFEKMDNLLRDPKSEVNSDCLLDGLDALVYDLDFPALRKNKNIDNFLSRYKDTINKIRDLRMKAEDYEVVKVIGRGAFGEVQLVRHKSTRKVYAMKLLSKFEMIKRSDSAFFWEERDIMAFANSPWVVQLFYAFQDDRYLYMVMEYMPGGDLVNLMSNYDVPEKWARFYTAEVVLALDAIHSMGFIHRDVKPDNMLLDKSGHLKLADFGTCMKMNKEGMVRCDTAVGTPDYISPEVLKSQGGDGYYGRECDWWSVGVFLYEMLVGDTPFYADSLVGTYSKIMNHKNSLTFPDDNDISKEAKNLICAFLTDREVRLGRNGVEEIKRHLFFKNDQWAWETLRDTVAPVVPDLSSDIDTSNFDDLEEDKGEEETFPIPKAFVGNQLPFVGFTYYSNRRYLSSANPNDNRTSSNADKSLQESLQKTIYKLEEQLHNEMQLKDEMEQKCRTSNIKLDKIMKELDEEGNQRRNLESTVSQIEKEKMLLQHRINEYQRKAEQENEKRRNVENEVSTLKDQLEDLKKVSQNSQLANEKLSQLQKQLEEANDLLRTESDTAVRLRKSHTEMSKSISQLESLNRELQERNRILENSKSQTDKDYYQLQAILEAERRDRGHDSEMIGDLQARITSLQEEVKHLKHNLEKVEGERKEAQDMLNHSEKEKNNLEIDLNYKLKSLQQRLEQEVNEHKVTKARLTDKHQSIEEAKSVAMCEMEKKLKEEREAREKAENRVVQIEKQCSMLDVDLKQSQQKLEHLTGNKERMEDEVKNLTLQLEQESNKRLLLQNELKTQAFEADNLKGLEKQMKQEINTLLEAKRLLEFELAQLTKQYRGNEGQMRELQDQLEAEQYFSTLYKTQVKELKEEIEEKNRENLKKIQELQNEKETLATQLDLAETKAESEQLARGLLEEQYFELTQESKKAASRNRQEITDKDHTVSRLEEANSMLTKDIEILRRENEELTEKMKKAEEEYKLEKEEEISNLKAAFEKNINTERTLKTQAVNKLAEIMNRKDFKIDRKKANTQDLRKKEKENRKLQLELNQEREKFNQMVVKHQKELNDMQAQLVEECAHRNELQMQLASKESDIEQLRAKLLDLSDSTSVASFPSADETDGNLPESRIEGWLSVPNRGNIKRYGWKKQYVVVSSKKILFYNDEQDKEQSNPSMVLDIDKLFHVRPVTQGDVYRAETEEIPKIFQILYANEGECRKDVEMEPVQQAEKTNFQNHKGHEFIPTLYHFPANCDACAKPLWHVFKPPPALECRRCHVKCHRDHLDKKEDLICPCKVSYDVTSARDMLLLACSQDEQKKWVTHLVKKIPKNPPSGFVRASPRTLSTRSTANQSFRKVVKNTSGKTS
In another series the target is P450 3A4 (Homo sapiens, UniProt P08684). Description: P450 inhibition at 10 μM. It counts as in vitro ADME.
Sequence of P450 3A4 (P08684 whole entry): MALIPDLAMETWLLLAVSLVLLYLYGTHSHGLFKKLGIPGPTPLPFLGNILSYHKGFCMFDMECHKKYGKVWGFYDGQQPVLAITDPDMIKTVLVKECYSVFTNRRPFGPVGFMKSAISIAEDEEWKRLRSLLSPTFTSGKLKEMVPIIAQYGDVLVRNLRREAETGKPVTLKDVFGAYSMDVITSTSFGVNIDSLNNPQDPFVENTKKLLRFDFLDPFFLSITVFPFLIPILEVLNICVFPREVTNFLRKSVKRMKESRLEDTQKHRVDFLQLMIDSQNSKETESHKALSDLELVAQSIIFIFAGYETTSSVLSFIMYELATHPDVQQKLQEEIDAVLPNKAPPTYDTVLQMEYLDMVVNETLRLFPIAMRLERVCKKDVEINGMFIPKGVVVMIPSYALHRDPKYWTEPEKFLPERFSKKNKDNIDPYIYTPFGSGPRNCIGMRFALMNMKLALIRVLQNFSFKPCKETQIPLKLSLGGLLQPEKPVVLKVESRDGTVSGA
For a further series, the target named is P450 2D6 (Homo sapiens, UniProt P10635). The series is described as follows: P450 inhibition at 10 μM. It counts as in vitro ADME.
Sequence of P450 2D6 (P10635 whole entry): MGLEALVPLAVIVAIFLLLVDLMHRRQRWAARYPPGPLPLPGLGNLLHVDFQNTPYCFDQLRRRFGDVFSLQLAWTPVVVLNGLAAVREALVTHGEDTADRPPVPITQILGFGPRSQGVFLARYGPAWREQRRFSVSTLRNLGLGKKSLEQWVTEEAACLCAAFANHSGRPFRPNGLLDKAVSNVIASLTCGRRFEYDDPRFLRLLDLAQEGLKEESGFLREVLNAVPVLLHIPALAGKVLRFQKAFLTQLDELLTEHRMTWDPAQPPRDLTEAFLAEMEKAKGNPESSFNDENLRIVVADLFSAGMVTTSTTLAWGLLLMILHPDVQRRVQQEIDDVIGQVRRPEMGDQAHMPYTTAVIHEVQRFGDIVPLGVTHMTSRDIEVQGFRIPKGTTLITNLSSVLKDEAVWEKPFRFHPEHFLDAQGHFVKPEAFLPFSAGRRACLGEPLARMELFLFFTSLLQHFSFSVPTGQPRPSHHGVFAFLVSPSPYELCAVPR
Series [2] in a line: Microsomal stability, rat liver microsomes. It counts as in vitro ADME. The note with it: rat liver microsomes.
Series [3] in a line: Plasma pharmacokinetics studies on rats. The note with it: rats; for AUC (iv) / Cl (iv) / T1/2 (iv) / Yd (iv) / Cmax: iv dosing 1 mg/kg; for F (%) (po): po dosing 2 mg/kg; for Cmax: read-out: Cmax (iv). As to the method:
In vivo pharmacokinetics (PK) studies were conducted for selected compounds during the whole optimization at various stages in order to identify structural elements that are favorable for in vivo applications, and/or to evaluate the feasibility of optimized Limk inhibitors for animal studies.

For a further series, the system named is HIV-1(NL4-3). Description: microbe, parasite or virus in culture. The format is cell-based. The settings on record: […]; dosages with no detectable cytotoxicity.
Setting [4] is: Table 1, means of ≥2 experiments, read-out: IC50 (nM) ROCK-II.
Where [5] appears, read: Table 1, means of ≥2 experiments, read-out: IC50 (nM) Limk1.
[6] abbreviates: Table 2, means of ≥2 experiments, read-out: IC50 (nM) ROCK-II.
[7] abbreviates: Table 3, means of ≥2 experiments, read-out: IC50 (nM) ROCK-II.
The mark [8] stands for this setting: Table 3, means of ≥2 experiments, read-out: IC50 (nM) Limk1.
The mark [9] stands for this setting: Table 4, means of ≥2 experiments, read-out: IC50 (nM) ROCK-II.
The mark [10] stands for this setting: Table 4, means of ≥2 experiments, read-out: IC50 (nM) Limk1.

SMILES strings stand for the structures. Read-outs that look alike come from different tables or passages of the source.

Sequence of ROCK-II (O75116 whole entry, species assumed): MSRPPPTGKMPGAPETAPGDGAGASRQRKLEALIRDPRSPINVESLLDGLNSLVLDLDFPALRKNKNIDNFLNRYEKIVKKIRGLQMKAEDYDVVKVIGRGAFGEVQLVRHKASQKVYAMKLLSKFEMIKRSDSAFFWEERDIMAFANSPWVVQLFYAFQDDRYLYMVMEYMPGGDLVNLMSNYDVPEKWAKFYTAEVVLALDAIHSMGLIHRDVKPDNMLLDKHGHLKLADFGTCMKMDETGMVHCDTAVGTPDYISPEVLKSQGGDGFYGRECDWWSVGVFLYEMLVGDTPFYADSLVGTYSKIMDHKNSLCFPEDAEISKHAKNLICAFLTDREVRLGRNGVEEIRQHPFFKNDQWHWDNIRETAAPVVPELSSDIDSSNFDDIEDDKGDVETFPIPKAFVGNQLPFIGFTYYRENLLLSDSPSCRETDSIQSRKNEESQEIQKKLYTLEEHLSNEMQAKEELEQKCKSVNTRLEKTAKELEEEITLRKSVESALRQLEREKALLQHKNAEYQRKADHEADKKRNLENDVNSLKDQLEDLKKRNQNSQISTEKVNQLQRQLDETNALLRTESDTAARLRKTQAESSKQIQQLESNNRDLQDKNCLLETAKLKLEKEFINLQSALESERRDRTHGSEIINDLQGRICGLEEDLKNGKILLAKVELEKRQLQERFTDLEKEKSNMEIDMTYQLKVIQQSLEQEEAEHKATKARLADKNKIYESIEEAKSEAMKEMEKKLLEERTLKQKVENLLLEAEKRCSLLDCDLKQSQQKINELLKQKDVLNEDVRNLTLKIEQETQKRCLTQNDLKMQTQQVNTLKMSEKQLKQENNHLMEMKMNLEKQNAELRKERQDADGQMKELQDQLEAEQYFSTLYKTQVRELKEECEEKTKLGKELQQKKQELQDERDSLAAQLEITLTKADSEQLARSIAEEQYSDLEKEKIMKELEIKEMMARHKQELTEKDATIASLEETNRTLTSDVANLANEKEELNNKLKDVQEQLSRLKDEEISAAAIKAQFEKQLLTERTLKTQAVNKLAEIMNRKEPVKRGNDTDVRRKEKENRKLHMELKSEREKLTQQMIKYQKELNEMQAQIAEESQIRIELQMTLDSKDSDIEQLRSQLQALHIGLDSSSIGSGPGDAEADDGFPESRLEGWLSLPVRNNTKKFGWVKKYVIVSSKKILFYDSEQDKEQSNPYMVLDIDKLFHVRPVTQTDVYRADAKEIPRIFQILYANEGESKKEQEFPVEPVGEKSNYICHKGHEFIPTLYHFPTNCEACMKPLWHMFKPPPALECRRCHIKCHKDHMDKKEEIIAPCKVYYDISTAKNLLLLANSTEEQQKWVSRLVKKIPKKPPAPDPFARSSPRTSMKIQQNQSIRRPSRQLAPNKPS
Sequence of Limk1 (P53667 285-638): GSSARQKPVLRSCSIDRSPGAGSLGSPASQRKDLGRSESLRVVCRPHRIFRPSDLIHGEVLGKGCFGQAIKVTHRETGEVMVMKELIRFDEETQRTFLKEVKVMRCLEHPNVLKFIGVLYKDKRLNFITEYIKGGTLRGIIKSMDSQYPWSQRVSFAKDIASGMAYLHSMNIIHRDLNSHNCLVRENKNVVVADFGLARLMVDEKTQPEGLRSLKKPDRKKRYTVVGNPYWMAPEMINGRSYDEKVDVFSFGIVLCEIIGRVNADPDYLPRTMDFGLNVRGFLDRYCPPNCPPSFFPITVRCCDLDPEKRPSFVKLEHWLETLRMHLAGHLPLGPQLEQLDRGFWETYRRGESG

As for `CC(C)NC(=O)c1cccc(NC(=O)Nc2ccc(-c3ccncc3)cc2)c1` [Compound 7b, N-Isopropyl-3-(3-(4-(pyridin-4-yl)phenyl)ureido)benzamide], the figures for the IC50 at ROCK-II (setting [4]) and on Limk1 (setting [5]) were 90 nM and above 10000 nM, respectively.
With `CC(C)NC(=O)c1cccc(NC(=O)Nc2ccc(-c3ccnc(N)n3)cc2)c1` [Compound 7c, 3-(3-(4-(2-Aminopyrimidin-4-yl)phenyl)ureido)-N-isopropylbenzamide], the results for the IC50 on ROCK-II (setting [4]) and at Limk1 (setting [5]) were 166 nM and above 10000 nM, respectively.
For `Cc1cc2c(-c3ccc(NC(=O)Nc4cccc(C(=O)NC(C)C)c4)cc3)ncnc2[nH]1` [Compound 7h, N-Isopropyl-3-(3-(4-(6-methyl-7H-pyrrolo[2,3-d]pyrimidin-4-yl)phenyl)ureido)benzamide], the results for the IC50 on ROCK-II (setting [4]) and at Limk1 (setting [5]) were above 10000 nM and 80 nM, respectively.
For the compound `Cc1[nH]c2ncnc(-c3ccc(NC(=O)Nc4cccc(C(=O)NC(C)C)c4)cc3)c2c1C` [Compound 7i, 3-(3-(4-(5,6-Dimethyl-7H-pyrrolo[2,3-d]pyrimidin-4-yl)phenyl)ureido)-N-isopropylbenzamide], the “P450 % inh. at 10 μM 1A2” value at P450 1A2 (10 μM) is reported as 77%. For the same compound, on P450 2C9, the “P450 % inh. at 10 μM 2C9” value is reported as 42%. In addition, the “Microsomal Stability t1/2 (min) Human” value in series [1] worked out at 47 min. Further, the results for the IC50 on ROCK-II (setting [4]), on ROCK-I and on Limk1 (setting [5]) were above 10000 nM, above 20000 nM and 80 nM, respectively. Further, the “P450 % inh. at 10 μM 3A4” value on P450 3A4 is reported as 42%. Moreover, the “P450 % inh. at 10 μM 2D6” value at P450 2D6 was 34%. The “Microsomal Stability t1/2 (min) Rat” value in series [2] is listed as above 120 min.
For the compound `Cc1c[nH]c2ncnc(-c3ccc(NC(=O)Nc4cccc(C(=O)NC(C)C)c4)c(C(F)(F)F)c3)c12` [Compound 7j, N-Isopropyl-3-(3-(4-(5-methyl-7H-pyrrolo[2,3-d]pyrimidin-4-yl)-2-(trifluoromethyl)phenyl)ureido)-benzamide], the concentration for half-maximal inhibition (IC50) was found to be 976 nM at ROCK-II (read-out: ROCK-II IC50) and 60 nM on Limk1 (read-out: Limk1 IC50).
`Cc1c[nH]c2ncnc(-c3ccc(NC(=O)Nc4cccc(C(=O)NC(C)C)c4)c(F)c3)c12` [Compound 7k, 3-(3-(2-Fluoro-4-(5-methyl-7H-pyrrolo[2,3-d]pyrimidin-4-yl)phenyl)ureido)-N-isopropylbenzamide]: the “P450 % inh. at 10 μM 1A2” value at P450 1A2 (10 μM) came out at 29%. The “P450 % inh. at 10 μM 2C9” value on P450 2C9 stood at 35%. Also, in series [1], the “Microsomal Stability t1/2 (min) Human” value was 27 min. Moreover, on ROCK-II (setting [6]), the IC50 worked out at 781 nM. Moreover, the half-maximal inhibitory concentration (IC50) on ROCK-I was determined as 2390 nM. In [3], the “AUC (iv)” value came out at 5.5 µM·h, the “Cl (iv)” value worked out at 0.426 L/h/kg, the “T1/2 (iv)” value is 90 min and the “Yd (iv)” value amounted to 0.7 L/kg. Besides, in series [3], the “F (%) (po)” value is 0% and the highest concentration (Cmax) amounted to 5.1 µM. Moreover, the “P450 % inh. at 10 μM 3A4” value at P450 3A4 is 32%. The “P450 % inh. at 10 μM 2D6” value on P450 2D6 is 13%. Further, in series [2], the “Microsomal Stability t1/2 (min) Rat” value is listed as 55 min. The IC50 on Limk1 (read-out: Limk1 IC50) came to 18 nM.
For `Cc1c[nH]c2ncnc(-c3ccc(NC(=O)Nc4cccc(C(=O)NC(C)C)c4)c(OCCN(C)C)c3)c12` [Compound 7l, 3-(3-(2-(2-(Dimethylamino)ethoxy)-4-(5-methyl-7H-pyrrolo[2,3-d]pyrimidin-4-yl)phenyl)ureido)-N-isopropylbenzamide], the IC50 was 7080 nM on ROCK-II (setting [6]) and 710 nM at Limk1 (Table 2, means of ≥2 experiments, read-out: IC50 (nM) Limk1).
Regarding `Cc1c[nH]c2ncnc(-c3ccc(NC(=O)Nc4ccccc4)cc3)c12` [Compound 10a, 1-(4-(5-Methyl-7H-pyrrolo[2,3-d]pyrimidin-4-yl)phenyl)-3-phenylurea], the concentration for half-maximal inhibition (IC50) at ROCK-II (read-out: ROCK-II IC50) amounted to 2360 nM. Besides, in [3], the “AUC (iv)” value came out at 14.3 µM·h, the “Cl (iv)” value was 0.204 L/h/kg, the “T1/2 (iv)” value worked out at 96 min and the “Yd (iv)” value is given as 0.5 L/kg. In [3], the “F (%) (po)” value was found to be 16% and the Cmax worked out at 7 µM. Besides, on Limk1 (read-out: Limk1 IC50), the IC50 was determined as 142 nM.
In the case of `Cc1c[nH]c2ncnc(-c3ccc(NC(=O)Nc4cccc(F)c4)cc3)c12` [Compound 10b, 1-(3-Fluorophenyl)-3-(4-(5-methyl-7H-pyrrolo[2,3-d]pyrimidin-4-yl)phenyl)urea], the IC50 stood at 5420 nM on ROCK-II (setting [7]) and 315 nM at Limk1 (read-out: Limk1 IC50).
`COc1ccccc1NC(=O)Nc1ccc(-c2ncnc3[nH]cc(C)c23)cc1` [Compound 10c, 1-(2-Methoxyphenyl)-3-(4-(5-methyl-7H-pyrrolo[2,3-d]pyrimidin-4-yl)phenyl)urea]: the results for the half-inhibitory concentration (IC50) on ROCK-II (setting [7]) and at Limk1 (read-out: Limk1 IC50) were 6650 nM and 283 nM, respectively.
In the case of `COc1cccc(NC(=O)Nc2ccc(-c3ncnc4[nH]cc(C)c34)cc2)c1` [Compound 10d, 1-(3-Methoxyphenyl)-3-(4-(5-methyl-7H-pyrrolo[2,3-d]pyrimidin-4-yl)phenyl)urea], the IC50 at ROCK-II (setting [7]) came out at 2570 nM; at Limk1 (setting [8]) it was 75 nM.
The corresponding values for `Cc1c[nH]c2ncnc(-c3ccc(NC(=O)Nc4nccs4)cc3)c12` [Compound 10f, 1-[4-(5-Methyl-7H-pyrrolo[2,3-d]pyrimidin-4-yl)-phenyl]-3-thiazol-2-yl-urea] are 2290 nM and 203 nM.
Consider `Cc1c[nH]c2ncnc(-c3ccc(NC(=O)Nc4ccccn4)cc3)c12` [Compound 10g, 1-[4-(5-Methyl-7H-pyrrolo[2,3-d]pyrimidin-4-yl)-phenyl]-3-pyridin-2-yl-urea], for which the figures for the half-inhibitory concentration (IC50) at ROCK-II (setting [7]) and on Limk1 (setting [8]) were above 10000 nM and 4510 nM, respectively.
As to `Cc1cccc(N(CCO)C(=O)Nc2ccc(-c3ncnc4[nH]cc(C)c34)cc2)c1` [Compound 18j, 1-(2-Hydroxyethyl)-3-(4-(5-methyl-7H-pyrrolo[2,3-d]pyrimidin-4-yl)phenyl)-1-m-tolylurea], the results for the IC50 at ROCK-II (setting [9]) and on Limk1 (setting [10]) were 8940 nM and 151 nM, respectively.
Regarding `COc1cccc(N(CCO)C(=O)Nc2ccc(-c3ncnc4[nH]cc(C)c34)cc2)c1` [Compound 18m, 1-(2-Hydroxyethyl)-1-(3-methoxyphenyl)-3-(4-(5-methyl-7H-pyrrolo[2,3-d]pyrimidin-4-yl)phenyl)urea], the “P450 % inh. at 10 μM 1A2” value at P450 1A2 was 3/17/3/44%. In addition, on P450 2C9, the “P450 % inh. at 10 μM 2C9” value is on record as 17%. For the same compound, the “Microsomal Stability t1/2 (min) Human” value in series [1] is recorded as 38 min. Besides, the half-maximal inhibitory concentration (IC50) is 3220 nM on ROCK-II (setting [9]), 4320 nM at ROCK-I and 100 nM on Limk1 (setting [10]). The “P450 % inh. at 10 μM 3A4” value at P450 3A4 is 44%. Further, the “P450 % inh. at 10 μM 2D6” value at P450 2D6 stood at 3%. In addition, the “Microsomal Stability t1/2 (min) Rat” value in series [2] was found to be 21 min.
As to `Cc1c[nH]c2ncnc(N3CCC(c4nc5cc(C#N)ccc5[nH]4)CC3)c12` [Compound R8212], the “X4 HIV infection (screen)” value with HIV-1(NL4-3) was “blocked”. The IC50 at Limk1 (Table 8, read-out: LIMK1 IC50) was found to be 44 ± 6 nM.
The corresponding values for `CC1(c2nc3ccc(C(=O)NC4CCC4)cc3[nH]2)CCN(c2ncnc3[nH]ccc23)CC1` [Compound R8482] are “blocked” and 41 ± 4 nM.
Take `Cc1c[nH]c2ncnc(-c3ccc(-c4nc5ccc(C(=O)NC6CCCC6)cc5[nH]4)c(F)c3)c12` [Compound R8584]: in the series with HIV-1(NL4-3), the “X4 HIV infection (screen)” value was “blocked”. The 50% inhibitory concentration (IC50) on Limk1 (Table 8, read-out: LIMK1 IC50) was 50 ± 7 nM.
The corresponding values for `CC(C)NC(=O)c1ccc2[nH]c(N3CCN(c4ncnc5[nH]cc(Cl)c45)C[C@@H]3C)nc2c1` [Compound R10543] are “blocked” and 5 ± 2 nM.
Turning to `CCOC(=O)c1ccc2nc(N3CCN(c4ncnc5[nH]cc(Cl)c45)[C@H](C)C3)[nH]c2c1` [Compound R10659], the “X4 HIV infection (screen)” value in the series on HIV-1(NL4-3) is recorded as “blocked”. Further, the concentration for half-maximal inhibition (IC50) at Limk1 (Table 8, read-out: LIMK1 IC50) was 45 ± 6 nM.
